Activity calls are given as the source filed them.
What was measured:
[1] = molecular target: T1, Methionyl-tRNA synthetase, putative (Trypanosoma brucei brucei, UniProt Q38C91); format: functional, Trypanosoma brucei brucei strain 927/4 GUTat10.1
T1 sequence (Q38C91 whole entry): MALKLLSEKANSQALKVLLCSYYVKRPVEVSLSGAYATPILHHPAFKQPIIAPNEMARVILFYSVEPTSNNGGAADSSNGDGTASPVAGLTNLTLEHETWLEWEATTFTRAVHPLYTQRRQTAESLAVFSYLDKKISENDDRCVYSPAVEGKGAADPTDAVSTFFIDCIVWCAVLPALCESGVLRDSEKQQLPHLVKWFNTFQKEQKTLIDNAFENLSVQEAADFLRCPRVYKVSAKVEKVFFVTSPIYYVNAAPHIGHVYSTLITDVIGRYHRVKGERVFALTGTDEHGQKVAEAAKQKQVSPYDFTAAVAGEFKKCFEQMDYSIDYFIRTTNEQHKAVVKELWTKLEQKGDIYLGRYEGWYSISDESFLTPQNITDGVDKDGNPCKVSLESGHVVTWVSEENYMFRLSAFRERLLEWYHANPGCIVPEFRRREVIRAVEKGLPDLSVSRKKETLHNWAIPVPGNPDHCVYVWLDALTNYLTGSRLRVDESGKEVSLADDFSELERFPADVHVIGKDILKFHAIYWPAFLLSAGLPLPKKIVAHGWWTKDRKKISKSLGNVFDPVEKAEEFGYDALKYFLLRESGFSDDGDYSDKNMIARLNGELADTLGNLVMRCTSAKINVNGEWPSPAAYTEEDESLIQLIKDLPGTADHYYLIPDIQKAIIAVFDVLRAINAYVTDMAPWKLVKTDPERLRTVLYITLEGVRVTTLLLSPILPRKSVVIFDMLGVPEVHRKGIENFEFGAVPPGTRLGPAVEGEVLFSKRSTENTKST

[2] = Counterscreen for inhibitors of Trypanosoma brucei methionyl tRNA synthetase (MetRS): Luminescence-based cell-based high throughput dose response assay to identify compounds that are cytotoxic to Jurkat human T lymphocyte cells.; format: functional
[3] = molecular target: T1, Methionyl-tRNA synthetase, putative; format: functional, Trypanosoma brucei brucei strain 927/4 GUTat10.1; remark: listed apart in the source
[4] = HEK293 cell viability, dose response, counter-screen for EBV LMP1 inhibitor project, dry powder, set 2 (AID 624374); format: functional
[5] = molecular target: Long-chain-fatty-acid--AMP ligase FadD28 (Mycobacterium tuberculosis, UniProt P9WQ59); assay: Fluorescence polarization aasay to screen for inhibitors that compete for the binding of FadD28 to a bisubstrate Measured in Biochemical System Using Plate Reader - 2147-01_Inhibitor_Dose_CherryPick_Activity.; format: functional, Mycobacterium tuberculosis H37Rv
[6] = system: A549; assay: A549 cell toxicity, dose response, cytotoxicity control, plate reader, cherry-pick samples (AID 687028); format: functional, cell-based; settings: Homo sapiens
[7] = molecular target: Eukaryotic translation initiation factor 4E (Mus musculus, UniProt P63073); assay: eIF4E–eIF4G protein interaction inhibitors, dose response, biochemical, TR-FRET (AID 855); format: functional;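 note: potency for disrupting eIF4E binding to eIF4GI seen as loss of FRET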
[8] = A549 cell cytotoxicity, dose response, cytotoxicity control, plate reader, cherry-pick, antagonist series (AID 743412); format: functional, cell-based
[9] = molecular target: Luciferin 4-monooxygenase (Photinus pyralis, UniProt P08659); assay: firefly luciferase enzyme inhibitors, dose response, biochemical, luminescence (AID 1891)
[10] = MC4R antagonists, dose response, counter-screen for LGR2 antagonist project, cell-based, plate reader, cherry pick (AID 743444); format: functional;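 note: transfected HEK 293 cells stimulated with alpha-MSH peptide; potency of inhibitors of the alpha-MSH evoked signal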
[11] = HepG2 cell cytotoxicity, dose response, cytotoxicity control, plate reader, cherry-pick, antagonist series (AID 743416); format: functional, cell-based
[12] = Luminescence Cell-Based Dose Confirmation HTS to Identify Inhibitors of Platelet Dense Granule Release. [Related pubchem assays: 1663 (Primary HTS), 1678 (Summary of Project)]; format: functional
[13] = LGR2 antagonists, dose response, cell-based, HEK293, CRE-luciferase reporter, cherry pick, set 2 (AID 743343); format: functional;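 note: transfected cells were stimulated with diluted bursicon conditioned medium after compound addition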
[14] = HEK293 cell cytotoxicity, dose response, cytotoxicity control, plate reader, cherry-picked samples (AID 743446); format: functional, cell-based
[15] = system: HEK293; assay: cells; format: functional, cell-based; settings: Homo sapiens
[16] = molecular target: Nucleotide-binding oligomerization domain-containing protein 2 (Homo sapiens, UniProt Q9HC29); assay: NOD2 signaling inhibitors, cell-based, luminescence, uHTS, HEK293 (AID 1566); format: functional
[17] = system: HEK293; assay: cells; format: functional, cell-based; settings: Homo sapiens; remark: listed apart in the source
[18] = system: HEK293; assay: cells; format: functional, cell-based; settings: Homo sapiens; remark: listed apart in the source
[19] = system: HEK293; assay: NOD1 signaling inhibitors, primary screen, cell-based, luminescence, uHTS (AID 1578); format: functional; settings: Homo sapiens
[20] = non-specific cell cytotoxicity, dose response, cytotoxicity control for PAX8 inhibitor project, plate reader, dry powder samples (AID 743021); format: functional, cell-based
[21] = molecular target: T2, Protein skinhead-1 (Caenorhabditis elegans, UniProt P34707); format: functional
T2 sequence (P34707 whole entry): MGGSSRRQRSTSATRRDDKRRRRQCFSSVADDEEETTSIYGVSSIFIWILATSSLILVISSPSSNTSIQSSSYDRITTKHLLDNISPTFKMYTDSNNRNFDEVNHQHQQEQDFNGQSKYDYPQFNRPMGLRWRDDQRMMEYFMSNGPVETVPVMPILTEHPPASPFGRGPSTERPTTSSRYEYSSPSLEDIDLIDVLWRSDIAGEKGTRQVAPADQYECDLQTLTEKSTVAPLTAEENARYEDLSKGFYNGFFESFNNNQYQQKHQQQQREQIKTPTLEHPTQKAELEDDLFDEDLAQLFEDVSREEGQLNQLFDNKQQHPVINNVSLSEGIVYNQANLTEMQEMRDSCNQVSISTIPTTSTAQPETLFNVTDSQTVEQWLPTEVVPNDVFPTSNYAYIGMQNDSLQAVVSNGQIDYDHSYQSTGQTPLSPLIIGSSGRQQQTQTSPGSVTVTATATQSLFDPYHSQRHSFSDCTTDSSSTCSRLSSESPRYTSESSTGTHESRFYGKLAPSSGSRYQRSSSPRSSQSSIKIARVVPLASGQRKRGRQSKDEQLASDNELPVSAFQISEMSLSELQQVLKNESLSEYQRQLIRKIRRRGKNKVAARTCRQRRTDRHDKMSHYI

[22] = molecular target: T3, Heat shock factor protein 1 (Mus musculus, UniProt P38532); assay: inhibition of MG132-induced HSE-luciferase signal, confirmation, cell-based, NIH3T3, luminescence, dose retest (AID 2382); format: functional;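 note: NIH3T3 fibroblasts with HSF1-driven luciferase reporter stressed by proteasome inhibitor MG132; luminescence from HSF1-driven luciferase expression after 8 hours of MG132 stress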
T3 sequence (P38532 whole entry): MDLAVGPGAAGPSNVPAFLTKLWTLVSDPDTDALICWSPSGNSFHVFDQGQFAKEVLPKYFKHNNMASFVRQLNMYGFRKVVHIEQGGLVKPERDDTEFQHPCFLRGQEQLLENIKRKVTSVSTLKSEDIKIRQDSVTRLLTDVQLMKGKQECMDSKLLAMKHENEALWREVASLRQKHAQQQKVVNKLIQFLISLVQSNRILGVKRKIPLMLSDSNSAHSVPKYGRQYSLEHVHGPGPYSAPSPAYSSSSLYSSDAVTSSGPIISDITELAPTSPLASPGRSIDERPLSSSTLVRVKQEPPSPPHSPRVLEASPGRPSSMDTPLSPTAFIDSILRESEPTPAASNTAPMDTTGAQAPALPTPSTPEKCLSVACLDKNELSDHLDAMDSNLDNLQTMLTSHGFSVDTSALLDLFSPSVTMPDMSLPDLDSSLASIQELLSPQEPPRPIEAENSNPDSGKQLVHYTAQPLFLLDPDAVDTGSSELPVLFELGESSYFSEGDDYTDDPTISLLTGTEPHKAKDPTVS

[23] = system: HEK293; assay: NOD2 signaling inhibitors in MDP-stimulated cells, cell-based, uHTS, luminescence (AID 2001); format: functional; settings: Homo sapiens
[24] = molecular target: Paired box protein Pax-8 (Homo sapiens, UniProt Q06710); assay: inhibitors of PAX8-driven TPO luciferase reporter, dose response, RMG-I cells, cherry-pick (AID 687027); format: functional, cell-based;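 note: luciferase reporter driven by Pax8 target thyroperoxidase promoter measured by SteadyGlo luminescence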
[25] = molecular target: T4, Oxysterols receptor LXR-beta (Homo sapiens, UniProt P55055); format: functional, cell-based;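 note: agonist activity at LXR measured by a cell-based luminescence readout across a dose range, run as a counterscreen for daf-12 agonists; HEK293 cells with Gal4-LXR fusion and GAL4-driven luciferase reporter; potency for activation of Gal4-LXR reporter so compounds are agonists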
T4 sequence (P55055 whole entry): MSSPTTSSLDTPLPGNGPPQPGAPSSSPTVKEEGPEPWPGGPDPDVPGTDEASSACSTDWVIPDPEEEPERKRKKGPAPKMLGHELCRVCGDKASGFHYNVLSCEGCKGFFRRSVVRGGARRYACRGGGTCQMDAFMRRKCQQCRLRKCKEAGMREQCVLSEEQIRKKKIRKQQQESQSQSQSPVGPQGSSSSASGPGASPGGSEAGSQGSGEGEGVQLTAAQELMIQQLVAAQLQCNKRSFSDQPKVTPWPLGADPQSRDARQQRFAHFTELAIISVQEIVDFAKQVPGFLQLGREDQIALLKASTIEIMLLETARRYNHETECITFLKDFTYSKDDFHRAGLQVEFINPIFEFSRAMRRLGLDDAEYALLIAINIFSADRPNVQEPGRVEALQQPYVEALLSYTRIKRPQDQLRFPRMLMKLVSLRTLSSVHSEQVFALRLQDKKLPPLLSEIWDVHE

[26] = molecular target: Major prion protein (Homo sapiens, UniProt P04156); format: functional, cell-based
[27] = cells
[28] = HeLa cell cytotoxicity, dose response, cytotoxicity control for MgcRacGAP inhibitor project (AID 624300); format: functional
[29] = molecular target: T5, Rac GTPase-activating protein 1 (Homo sapiens, UniProt Q9H0H5); assay: MgcRacGAP GTPase-activating activity inhibitors, confirmation, biochemical, ADP Hunter fluorescence, primary and confirmatory (AID 624330); format: functional
T5 sequence (Q9H0H5 whole entry): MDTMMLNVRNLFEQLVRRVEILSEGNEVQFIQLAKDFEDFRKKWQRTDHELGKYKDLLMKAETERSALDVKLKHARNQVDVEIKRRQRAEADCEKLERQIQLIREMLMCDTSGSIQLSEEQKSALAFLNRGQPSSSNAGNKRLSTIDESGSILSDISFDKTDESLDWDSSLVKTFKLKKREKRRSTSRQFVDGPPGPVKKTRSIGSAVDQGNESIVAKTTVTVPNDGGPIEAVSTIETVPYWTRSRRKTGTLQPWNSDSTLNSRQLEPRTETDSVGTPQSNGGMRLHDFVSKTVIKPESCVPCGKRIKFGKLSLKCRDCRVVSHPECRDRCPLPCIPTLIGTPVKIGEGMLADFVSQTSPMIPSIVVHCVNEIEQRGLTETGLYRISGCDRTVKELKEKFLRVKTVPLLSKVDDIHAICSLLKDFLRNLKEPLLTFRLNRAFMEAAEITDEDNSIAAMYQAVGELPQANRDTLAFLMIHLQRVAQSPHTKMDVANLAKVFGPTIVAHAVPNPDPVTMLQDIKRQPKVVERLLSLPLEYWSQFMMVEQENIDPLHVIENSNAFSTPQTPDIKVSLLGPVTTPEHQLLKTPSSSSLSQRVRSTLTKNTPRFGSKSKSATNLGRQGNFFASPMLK

[30] = molecular target: Fructose-bisphosphate aldolase (Mycobacterium tuberculosis, UniProt P9WQA3); assay: Fluorescence-based biochemical high throughput dose response assay for inhibitors of the fructose-bisphosphate aldolase (FBA) of M. tuberculosis.; format: functional
[31] = cells; remark: listed apart in the source

COc1ccc(CCN2C(=S)N(C)C(=O)C2CC(=O)Nc2ccc(F)cc2)cc1 (stereo unspecified)
IC50 [1]: 6.54 µM (active)
IC50 [2]: 32.7 µM (inactive)
IC50 [3]: 2.69 µM (active)

CCN1C(=O)C(CC(=O)Nc2ccc(OC)cc2)N(CCc2ccc(OC)cc2)C1=S (stereo unspecified)
IC50 [1]: 13.1 µM (inactive)
IC50 [2]: 52.4 µM (inactive)
IC50 [3]: 5.11 µM (active)

Cc1noc(C)c1S(=O)(=O)Nc1ccc2c(c1)C(=O)N([C@@H](C)CO)C[C@@H](C)[C@H](CN(C)Cc1ccc(C(F)(F)F)cc1)OCCCC[C@H](C)O2
AbsAC35 [4]: 151.31 µM

COc1cc(C(S)=NCc2ccccc2)cc(Br)c1O
AC50 [5]: 53.6 µM (active)

COc1ccc(OC)c(S(=O)(=O)N2CCN(c3c(C)cccc3C)CC2)c1
AC50 [6]: 20.8 µM (active)
IC50 [7]: > 64 µM (inactive)

Cc1csc(NC(=O)c2cn3ccccc3n2)n1
AC50 [8]: > 52 µM (inactive)
EC50 [9]: 8.32 µM (active)
AC50 [10]: 1.92 µM (active)
AC50 [11]: > 52 µM (inactive)
EC50 [12]: 4.85 µM (active)
AC50 [13]: 2.16 µM (active)
AC50 [14]: 47.2 µM (active)

CC(C)c1ccc(-c2nc3ccccc3s2)cc1
IC50 [15]: 0.478 µM (active)
EC50 [16]: 0.02 µM (active)
IC50 [17]: > 20 µM (inactive)
AC50 [8]: 22.8 µM (active)
IC50 [18]: > 20 µM (inactive)
EC50 [19]: 4.67 µM (active)
AC50 [20]: 7.87 µM (active)
AC50 [10]: < 0.068 µM (active)
IC50 [21]: 75.6 µM (inactive)
EC50 [22]: < 0.16 µM (active)
AC50 [11]: > 52 µM (inactive)
IC50 [23]: 3.21 µM (active)
AC50 [13]: 0.133 µM (active)
AC50 [14]: 34 µM (active)
AC50 [24]: 5.31 µM (active)

O=C(CC(=O)c1cccs1)c1ccncc1
EC50 [25]: > 67.5 µM (inactive)

COc1ccc(NC(=O)CCSc2ccc3ccccc3n2)cc1
IC50 [26]: 4.52 µM (active)
IC50 [27]: > 138 µM (inactive)

Cc1c(O)ccc(/C(Cc2ccc3ccccc3n2)=N\O)c1O
CC50 [28]: 100 µM (active)
IC50 [29]: 62.1 µM (active)

Cc1cc(OCC(=O)NCCc2ccc(S(N)(=O)=O)cc2)c2c(C)c(C)c(=O)oc2c1
IC50 [30]: 1.1 µM (active)

CCOC(=O)c1ccc(NC(S)=NNC(=O)C2(C)CC2(Cl)Cl)cc1 (stereo unspecified)
AC50 [5]: 13.8 µM (active)

COc1cccc2c(=O)c3c(cnn3C)n(C)c12
AC50 [31]: 2.16 µM (active)

CN(C)/C=N/C(=S)Nc1ccc(Cl)cc1
EC50 [25]: > 67.5 µM (inactive)
